Measured values from ChEMBL document CHEMBL1201862, “PubChem BioAssay data set” (2004).
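Method: 48-hour compound exposure of cells in 96-well plates, five concentrations, linear interpolation of endpoints. GI50 is the concentration that inhibits growth by half.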 Calls of active or inactive are those of the source. No stated cut-off is given here; in the data, active = GI50 up to about 1.1 µM and inactive = higher.

Legend:
Assay in all cases: NCI anticancer screen, dose series, 48 h
BT-549 = tested on: BT-549
HCT-116 = tested on: HCT-116
SR = tested on: SR
HOP-92 = tested on: HOP-92
NCI-H522 = tested on: NCI-H522
HL-60 = tested on: HL-60
UO-31 = tested on: UO-31
MOLT-4 = tested on: MOLT-4
EKVX = tested on: EKVX
HCT-15 = tested on: HCT-15
UACC-62 = tested on: UACC-62
SN12C = tested on: SN12C
HOP-62 = tested on: HOP-62
SNB-19 = tested on: SNB-19
U-251 = tested on: U-251
A498 = tested on: A498
PC-3 = tested on: PC-3
786-0 = tested on: 786-0
RPMI-8226 = tested on: RPMI-8226
UACC-257 = tested on: UACC-257
OVCAR-8 = tested on: OVCAR-8
MDA-MB-435 = tested on: MDA-MB-435
OVCAR-3 = tested on: OVCAR-3
SF-539 = tested on: SF-539
RXF 393 = tested on: RXF 393
T47D = tested on: T47D
SK-MEL-28 = tested on: SK-MEL-28
HCC 2998 = tested on: HCC 2998
IGROV-1 = tested on: IGROV-1
NCI/ADR-RES = tested on: NCI/ADR-RES
HT-29 = tested on: HT-29
COLO 205 = tested on: COLO 205
MDA-N = tested on: MDA-N
KM12 = tested on: KM12
ACHN = tested on: ACHN
NCI-H226 = tested on: NCI-H226
NCI-H460 = tested on: NCI-H460
LOX IMVI = tested on: LOX IMVI
K562 = tested on: K562
SK-MEL-5 = tested on: SK-MEL-5
M14 = tested on: M14
CAKI-1 = tested on: CAKI-1
CCRF-CEM = tested on: CCRF-CEM
Malme-3M = tested on: Malme-3M
Hs-578T = tested on: Hs-578T
MCF7 = tested on: MCF7
NCI-H23 = tested on: NCI-H23
SF-295 = tested on: SF-295
SF-268 = tested on: SF-268
SNB-75 = tested on: SNB-75
SW-620 = tested on: SW-620
TK-10 = tested on: TK-10
A549 = tested on: A549
OVCAR-4 = tested on: OVCAR-4
SK-MEL-2 = tested on: SK-MEL-2
SK-OV-3 = tested on: SK-OV-3
OVCAR-5 = tested on: OVCAR-5
DU-145 = tested on: DU-145
MDA-MB-231 = tested on: MDA-MB-231

Compound: CCOC(=O)C(C(=O)OCC)=C1NC2(c3ccccc3Nc3ccccc32)C(C#N)S1 (centres undefined)
- GI50 (BT-549): 14.2 µM (inactive)
- GI50 (HCT-116): 9.89 µM (inactive)
- GI50 (SR): 2.81 µM (inactive)
- GI50 (HOP-92): 4.34 µM (inactive)
- GI50 (NCI-H522): 13.9 µM (inactive)
- GI50 (HL-60): 21.9 µM (inactive)
- GI50 (UO-31): 12.7 µM (inactive)
- GI50 (MOLT-4): 3.53 µM (inactive)
- GI50 (EKVX): 13.7 µM (inactive)
- GI50 (HCT-15): 5.78 µM
- GI50 (UACC-62): 10.3 µM (inactive)
- GI50 (SN12C): 5.6 µM (inactive)
- GI50 (HOP-62): 12.2 µM (inactive)
- GI50 (SNB-19): 12.6 µM (inactive)
- GI50 (U-251): 12.1 µM (inactive)
- GI50 (A498): 13.8 µM (inactive)
- GI50 (PC-3): 4.52 µM (inactive)
- GI50 (786-0): 10.4 µM (inactive)
- GI50 (RPMI-8226): 3.01 µM (inactive)
- GI50 (UACC-257): 12.8 µM (inactive)
- GI50 (OVCAR-8): 10.9 µM (inactive)
- GI50 (MDA-MB-435): 7.73 µM (inactive)
- GI50 (OVCAR-3): 0.286 µM (active)
- GI50 (SF-539): 11 µM (inactive)
- GI50 (RXF 393): 12.9 µM (inactive)
- GI50 (T47D): 4.66 µM (inactive)
- GI50 (SK-MEL-28): 17 µM (inactive)
- GI50 (HCC 2998): 4.42 µM (inactive)
- GI50 (IGROV-1): 11.1 µM (inactive)
- GI50 (NCI/ADR-RES): 10.4 µM (inactive)
- GI50 (HT-29): 4.21 µM (inactive)
- GI50 (COLO 205): 6.75 µM (inactive)
- GI50 (MDA-N): 14.4 µM (inactive)
- GI50 (KM12): 4.37 µM (inactive)
- GI50 (ACHN): 14.9 µM (inactive)
- GI50 (NCI-H226): 12 µM (inactive)
- GI50 (NCI-H460): 3.79 µM (inactive)
- GI50 (LOX IMVI): 13.6 µM (inactive)
- GI50 (K562): 7.53 µM (inactive)
- GI50 (SK-MEL-5): 10 µM (inactive)
- GI50 (M14): 7.46 µM (inactive)
- GI50 (CAKI-1): 16.3 µM (inactive)
- GI50 (CCRF-CEM): 6.08 µM (inactive)
- GI50 (Malme-3M): 15.3 µM (inactive)
- GI50 (Hs-578T): 19.1 µM (inactive)
- GI50 (MCF7): 3.39 µM (inactive)
- GI50 (NCI-H23): 4.63 µM (inactive)
- GI50 (SF-295): 11.1 µM (inactive)
- GI50 (SF-268): 13.5 µM (inactive)
- GI50 (SNB-75): 16.2 µM (inactive)
- GI50 (SW-620): 12.4 µM (inactive)
- GI50 (TK-10): 13.5 µM (inactive)
- GI50 (A549): 4.39 µM (inactive)
- GI50 (OVCAR-4): 4.3 µM (inactive)
- GI50 (SK-MEL-2): 11.6 µM (inactive)
- GI50 (SK-OV-3): 12.7 µM (inactive)
- GI50 (OVCAR-5): 16.7 µM (inactive)
- GI50 (DU-145): 12 µM (inactive)

Compound: COc1ccc(/C=C2\CCC(C)C3C2=NN(c2ccccc2)C3c2ccc(OC)c(OC)c2)cc1OC (centres undefined)
- GI50 (BT-549): 3.24 µM (inactive)
- GI50 (HCT-116): 2.07 µM (inactive)
- GI50 (HL-60): 1.54 µM (inactive)
- GI50 (UO-31): 6.12 µM (inactive)
- GI50 (MOLT-4): 2.7 µM (inactive)
- GI50 (EKVX): 1.74 µM (inactive)
- GI50 (HCT-15): 3.01 µM
- GI50 (UACC-62): 3.43 µM (inactive)
- GI50 (SN12C): 4.1 µM (inactive)
- GI50 (SNB-19): 8 µM (inactive)
- GI50 (U-251): 4.33 µM (inactive)
- GI50 (A498): 3.42 µM (inactive)
- GI50 (PC-3): 3.5 µM (inactive)
- GI50 (786-0): 3.48 µM (inactive)
- GI50 (RPMI-8226): 1.23 µM (inactive)
- GI50 (UACC-257): 4.34 µM (inactive)
- GI50 (OVCAR-8): 3.28 µM (inactive)
- GI50 (MDA-MB-435): 3.64 µM (inactive)
- GI50 (OVCAR-3): 5.04 µM (inactive)
- GI50 (SF-539): 2.48 µM (inactive)
- GI50 (RXF 393): 3.23 µM (inactive)
- GI50 (T47D): 1.71 µM (inactive)
- GI50 (SK-MEL-28): 4.97 µM (inactive)
- GI50 (IGROV-1): 2.32 µM (inactive)
- GI50 (NCI/ADR-RES): 3.18 µM (inactive)
- GI50 (HT-29): 3.54 µM (inactive)
- GI50 (COLO 205): 4.22 µM (inactive)
- GI50 (MDA-N): 3.94 µM (inactive)
- GI50 (KM12): 2.46 µM (inactive)
- GI50 (ACHN): 3.84 µM (inactive)
- GI50 (MDA-MB-231): 4.19 µM (inactive)
- GI50 (NCI-H226): 2.69 µM (inactive)
- GI50 (LOX IMVI): 2.49 µM (inactive)
- GI50 (K562): 2.01 µM (inactive)
- GI50 (SK-MEL-5): 3.61 µM (inactive)
- GI50 (M14): 4.66 µM (inactive)
- GI50 (CAKI-1): 3.94 µM (inactive)
- GI50 (CCRF-CEM): 1.87 µM (inactive)
- GI50 (Malme-3M): 3.08 µM (inactive)
- GI50 (Hs-578T): 7.29 µM (inactive)
- GI50 (MCF7): 3.21 µM (inactive)
- GI50 (NCI-H23): 4.21 µM (inactive)
- GI50 (SF-295): 2.64 µM (inactive)
- GI50 (SF-268): 3.89 µM (inactive)
- GI50 (SNB-75): 1.18 µM (inactive)
- GI50 (SW-620): 4.22 µM (inactive)
- GI50 (TK-10): 3.22 µM (inactive)
- GI50 (SK-MEL-2): 3.04 µM (inactive)
- GI50 (SK-OV-3): 4.23 µM (inactive)
- GI50 (OVCAR-5): 2.65 µM (inactive)
- GI50 (DU-145): 3.01 µM (inactive)
